Measurements reported in PubChem BioAssay (NCI).
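A five-concentration, 48-hour dose response in 96-well plates underlies each endpoint, interpolated linearly between surrounding concentrations. TGI: concentration producing complete growth inhibition.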

Tests used:
Experiment in all cases: NCI-60 cell line screen, 48 h
OVCAR-3 ovarian = tested on: OVCAR-3 ovarian
OVCAR-4 ovarian = tested on: OVCAR-4 ovarian
EKVX NSCLC = tested on: EKVX NSCLC
SK-MEL-2 melanoma = tested on: SK-MEL-2 melanoma
IGROV1 ovarian = tested on: IGROV1 ovarian
KM20L2 colon = tested on: KM20L2 colon
RPMI-8226 leukemia = tested on: RPMI-8226 leukemia
LXFL 529 NSCLC = tested on: LXFL 529 NSCLC
NCI/ADR-RES ovarian = tested on: NCI/ADR-RES ovarian
DU-145 prostate = tested on: DU-145 prostate

SMILES: Nc1nc2c(ncn2C2CCC(CO)O2)c(=O)n1C(=O)c1ccccc1 (stereo unspecified)
- TGI (OVCAR-3 ovarian): > 100 µM
- TGI (OVCAR-4 ovarian): > 100 µM
- TGI (EKVX NSCLC): > 100 µM
- TGI (SK-MEL-2 melanoma): > 100 µM
- TGI (IGROV1 ovarian): > 100 µM
- TGI (KM20L2 colon): > 100 µM
- TGI (RPMI-8226 leukemia): > 100 µM
- TGI (LXFL 529 NSCLC): > 100 µM
- TGI (NCI/ADR-RES ovarian): > 100 µM
- TGI (DU-145 prostate): > 100 µM

SMILES: CC12OOC(c3ccccc31)c1c2ccc2ccccc12 (stereo unspecified)
- TGI (OVCAR-3 ovarian): 5.81 µM
- TGI (OVCAR-4 ovarian): 2.43 µM
- TGI (EKVX NSCLC): 18.7 µM
- TGI (SK-MEL-2 melanoma): 24.9 µM
- TGI (IGROV1 ovarian): 3.67 µM
- TGI (KM20L2 colon): 11.3 µM
- TGI (RPMI-8226 leukemia): 6.24 µM
- TGI (LXFL 529 NSCLC): 4.81 µM
- TGI (NCI/ADR-RES ovarian): 24.1 µM
- TGI (DU-145 prostate): 32.4 µM

SMILES: COc1cccc2ccc(C(=O)c3ccccc3)nc12
- TGI (OVCAR-3 ovarian): > 100 µM
- TGI (OVCAR-4 ovarian): > 100 µM
- TGI (EKVX NSCLC): > 100 µM
- TGI (SK-MEL-2 melanoma): > 100 µM
- TGI (IGROV1 ovarian): > 100 µM
- TGI (KM20L2 colon): > 100 µM
- TGI (RPMI-8226 leukemia): > 100 µM
- TGI (LXFL 529 NSCLC): > 100 µM

SMILES: O=C1CC(c2c(-c3ccccc3)[nH]c3ccccc23)C(=O)N1 (stereo unspecified)
- TGI (OVCAR-3 ovarian): > 100 µM
- TGI (OVCAR-4 ovarian): > 100 µM
- TGI (EKVX NSCLC): > 100 µM
- TGI (SK-MEL-2 melanoma): > 100 µM
- TGI (IGROV1 ovarian): > 100 µM
- TGI (KM20L2 colon): > 100 µM
- TGI (RPMI-8226 leukemia): > 100 µM
- TGI (LXFL 529 NSCLC): > 100 µM
